In brackets after ≈: the same amount, converted by molar mass.

One data set concerns Aspergillus niger. Put plainly: Minimum inhibitory concentration (MIC) against fungi on malt extract agar. As to conditions: 336 h, 2 weeks at 28° C., 60 to 70% relative atmospheric humidity, read-out: Minimum inhibitory concentrations Aspergillus niger. It is filed as cell-based. Here is the method:
(§1) In each case, the active compounds according to the invention, in concentrations of from 0.1 mg/l to 5000 mg/l, were added to an agar which had been prepared using malt extracts. The MIC was determined after 2 weeks of storage at 28° C. and 60 to 70% relative atmospheric humidity. The MIC is the lowest concentration of active compound at which there is no colonization by the microbial species used.

The test system of another data set is Chaetomium globosum. The description is as above. It counts as cell-based. As to conditions: 336 h, 2 weeks at 28° C., 60 to 70% relative atmospheric humidity, read-out: Minimum inhibitory concentrations Chaetomium globosum. As for the experimental part: as §1
The subject of the next data set is Penicillium brevicaule. Described as above. It counts as cell-based. As to conditions: 336 h, 2 weeks at 28° C., 60 to 70% relative atmospheric humidity, read-out: Minimum inhibitory concentrations Penicillium brevicaule. Here is the method:
as §1

Data set [1] concerns mold fungi (Alternaria tenuis, Aspergillus flavus, Aspergillus niger, Aspergillus ustus, Cindosporum herbarum, Paecilomyces variotii, Penicillium citrium …). As to the kind of experiment: Test of dispersion coatings for resistance to mold. It is filed as cell-based. As to conditions: coatings according to recipe A containing 1.0% (based on solids) of compound; even after rinsing out and wind tunnel exposure; 2-3 weeks, 29±1° C., 80-90% rel. humidity. Here is the method:
To test dispersion coatings for resistance to mold, the following procedure was adopted:
The paint to be tested was applied to both sides of a suitable base. To obtain results which are close to practice, some of the test specimens were rinsed out with running water (24 h, 20° C.) before the test for mold resistance; others were treated with a current of warm fresh air (7 days, 40° C.).
The samples prepared in this way were then placed on an agar nutrient medium, and both samples and nutrient medium were contaminated with fungal spores. After 2-3 weeks storage (29±1° C., 80-90% rel. atmospheric humidity), the samples were compared.
The coating is considered to be permanently mold-resistant if the sample remains free from fungus or at most a slight border infestation can be detected.
For the contamination, fungal spores of the following mold fungi were used, which are known as paint destroyers or are frequently encountered on coatings: […]

`CCCCn1nnnc1I` [Example 1, 5-Iodo-1-butyltetrazole] showed a melting point of 31 to 37 °C. Moreover, in the data set with Aspergillus niger, the MIC amounted to 5 µg/mL (≈ 19.8 µM). The MIC in the data set on Chaetomium globosum amounted to 5 µg/mL (≈ 19.8 µM). Further, the MIC in the data set on Penicillium brevicaule is < 1 µg/mL.
In turn, `Ic1nnnn1-c1ccccc1` [Example 2, 5-Iodo-1-phenyltetrazole] yielded a melting point of 123 to 129 °C. Also, the “Mold resistance of coating” value in data set [1] is listed as “mold resistant”. For the same molecule, in the data set with Aspergillus niger, the MIC was < 40 µg/mL. The MIC with Chaetomium globosum was < 40 µg/mL. For the same molecule, the MIC in the data set on Penicillium brevicaule is < 40 µg/mL.

As usually defined, the melting point is the temperature of the solid-liquid transition.

Source of the values: patent publication US8048903B2, “5-iodotetrazoles” (LANXESS Deutschland GmbH, priority 2004, dated 2011).
